Measurements published in ChEMBL document CHEMBL1138190, “Synthesis and antibacterial activity of novel C12 vinyl ketolides” (J Med Chem, 2006).
In brackets after ≈: the same amount, converted by molar mass.

How the values were obtained:
Type in all cases: functional
Haemophilus influenzae [1] = assay: Antibacterial activity against Haemophilus influenzae 2762
Staphylococcus aureus [2] = assay: Antibacterial activity against Staphylococcus aureus 29213
Staphylococcus aureus [3] = assay: Antibacterial activity against Staphylococcus aureus 33591
[4] = test system: Staphylococcus epidermidis; assay: Antibacterial activity against Staphylococcus epidermidis 14990
[5] = test system: Staphylococcus epidermidis; assay: Antibacterial activity against Staphylococcus epidermidis f50654
Enterococcus faecalis [6] = assay: Antibacterial activity against Enterococcus faecalis 29212
Enterococcus faecalis [7] = assay: Antibacterial activity against Enterococcus faecalis bc11148-2
Streptococcus pyogenes = assay: Antibacterial activity against Streptococcus pyogenes 8668
Streptococcus pneumoniae [8] = assay: Antibacterial activity against Streptococcus pneumoniae 49619
Streptococcus pneumoniae [9] = assay: Antibacterial activity against Streptococcus pneumoniae 297-749
Streptococcus pneumoniae [10] = assay: Antibacterial activity against Streptococcus pneumoniae 280-962
Streptococcus pneumoniae [11] = assay: Antibacterial activity against Streptococcus pneumoniae Erm 6849
Streptococcus pneumoniae [12] = assay: Antibacterial activity against Streptococcus pneumoniae Mef 5654
Streptococcus pneumoniae [13] = assay: Antibacterial activity against Streptococcus pneumoniae Mef S 3427
Haemophilus influenzae [14] = assay: Antibacterial activity against Haemophilus influenzae 49247

SMILES	MIC (Haemophilus influenzae [1]) [µg/mL]	MIC (Staphylococcus aureus [2]) [µg/mL]	MIC (Staphylococcus aureus [3]) [µg/mL]	MIC [4] [µg/mL]	MIC [5] [µg/mL]	MIC (Enterococcus faecalis [6]) [µg/mL]	MIC (Enterococcus faecalis [7]) [µg/mL]	MIC (Streptococcus pyogenes) [µg/mL]	MIC (Streptococcus pneumoniae [8]) [µg/mL]	MIC (Streptococcus pneumoniae [9]) [µg/mL]	MIC (Streptococcus pneumoniae [10]) [µg/mL]	MIC (Streptococcus pneumoniae [11]) [µg/mL]	MIC (Streptococcus pneumoniae [12]) [µg/mL]	MIC (Streptococcus pneumoniae [13]) [µg/mL]	MIC (Haemophilus influenzae [14]) [µg/mL]
C=C[C@]12OC(=O)N(CCCCn3cnc4cccnc43)[C@@H]1[C@@H](C)C(=O)[C@H](C)C[C@@](C)(OC)[C@H](O[C@@H]1O[C@H](C)C[C@H](N(C)C)[C@H]1O)[C@@H](C)C(=O)[C@@H](C)C(=O)O[C@@H]2CC	0.78 (≈ 0.977 µM)	0.2 (≈ 0.251 µM)	> 50	0.1 (≈ 0.125 µM)	0.2 (≈ 0.251 µM)	0.1 (≈ 0.125 µM)	0.78 (≈ 0.977 µM)	≤ 0.05	≤ 0.05	≤ 0.05	≤ 0.05	12.5 (≈ 15.7 µM)	0.78 (≈ 0.977 µM)	0.1 (≈ 0.125 µM)	1.56 (≈ 1.95 µM)
C=C[C@]12OC(=O)N(CCCCn3cc(Cl)c4ncccc43)[C@@H]1[C@@H](C)C(=O)[C@H](C)C[C@@](C)(OC)[C@H](O[C@@H]1O[C@H](C)C[C@H](N(C)C)[C@H]1O)[C@@H](C)C(=O)[C@@H](C)C(=O)O[C@@H]2CC	0.78 (≈ 0.938 µM)	0.2 (≈ 0.241 µM)	> 50	0.1 (≈ 0.12 µM)	0.1 (≈ 0.12 µM)	0.1 (≈ 0.12 µM)	1.56 (≈ 1.88 µM)	≤ 0.05	≤ 0.05	≤ 0.05	≤ 0.05	3.13 (≈ 3.76 µM)	0.78 (≈ 0.938 µM)	0.1 (≈ 0.12 µM)	3.13 (≈ 3.76 µM)
C=C[C@]12OC(=O)N(CCCCn3cnc(-c4cncnc4)c3)[C@@H]1[C@@H](C)C(=O)[C@H](C)C[C@@](C)(OC)[C@H](O[C@@H]1O[C@H](C)C[C@H](N(C)C)[C@H]1O)[C@@H](C)C(=O)[C@@H](C)C(=O)O[C@@H]2CC	1.56 (≈ 1.89 µM)	0.2 (≈ 0.242 µM)	> 50	0.2 (≈ 0.242 µM)	0.2 (≈ 0.242 µM)	0.1 (≈ 0.121 µM)	0.4 (≈ 0.485 µM)	≤ 0.05	≤ 0.05	≤ 0.05	≤ 0.05	0.2 (≈ 0.242 µM)	0.78 (≈ 0.945 µM)	0.1 (≈ 0.121 µM)	3.13 (≈ 3.79 µM)
C=C[C@]12OC(=O)N(CCCCn3cnc(-c4cnccn4)c3)[C@@H]1[C@@H](C)C(=O)[C@H](C)C[C@@](C)(OC)[C@H](O[C@@H]1O[C@H](C)C[C@H](N(C)C)[C@H]1O)[C@@H](C)C(=O)[C@@H](C)C(=O)O[C@@H]2CC	1.56 (≈ 1.89 µM)	0.2 (≈ 0.242 µM)	> 50	0.1 (≈ 0.121 µM)	0.2 (≈ 0.242 µM)	0.1 (≈ 0.121 µM)	0.4 (≈ 0.485 µM)	≤ 0.05	≤ 0.05	≤ 0.05	≤ 0.05	0.2 (≈ 0.242 µM)	0.78 (≈ 0.945 µM)	0.1 (≈ 0.121 µM)	3.13 (≈ 3.79 µM)
C=C[C@]12OC(=O)N(CCN(C)Cc3cccc(-c4cccnc4)c3)[C@@H]1[C@@H](C)C(=O)[C@H](C)C[C@@](C)(OC)[C@H](O[C@@H]1O[C@H](C)C[C@H](N(C)C)[C@H]1O)[C@@H](C)C(=O)[C@@H](C)C(=O)O[C@@H]2CC	1.56 (≈ 1.84 µM)	0.2 (≈ 0.236 µM)	> 50	0.2 (≈ 0.236 µM)	0.1 (≈ 0.118 µM)	0.1 (≈ 0.118 µM)	0.1 (≈ 0.118 µM)	≤ 0.05	≤ 0.05	≤ 0.05	≤ 0.05	0.1 (≈ 0.118 µM)	0.78 (≈ 0.919 µM)	0.1 (≈ 0.118 µM)	6.25 (≈ 7.36 µM)
C=C[C@]12OC(=O)N(CCCCn3cnc(-c4cnc(OC)nc4)c3)[C@@H]1[C@@H](C)C(=O)[C@H](C)C[C@@](C)(OC)[C@H](O[C@@H]1O[C@H](C)C[C@H](N(C)C)[C@H]1O)[C@@H](C)C(=O)[C@@H](C)C(=O)O[C@@H]2CC	0.78 (≈ 0.912 µM)	0.1 (≈ 0.117 µM)	> 50	0.1 (≈ 0.117 µM)	0.1 (≈ 0.117 µM)	≤ 0.05	0.4 (≈ 0.468 µM)	≤ 0.05	≤ 0.05	≤ 0.05	≤ 0.05	0.4 (≈ 0.468 µM)	0.78 (≈ 0.912 µM)	0.2 (≈ 0.234 µM)	6.25 (≈ 7.31 µM)
CC[C@H]1OC(=O)[C@H](C)[C@@H](O[C@H]2C[C@@](C)(OC)[C@@H](O)[C@H](C)O2)[C@H](C)[C@@H](O[C@@H]2O[C@H](C)C[C@H](N(C)C)[C@H]2O)[C@](C)(OC)C[C@@H](C)C(=O)[C@H](C)[C@@H](O)[C@]1(C)O [CLARITHROMYCIN]	0.78 (≈ 1.04 µM)	0.4 (≈ 0.535 µM)	> 50	0.2 (≈ 0.267 µM)	0.2 (≈ 0.267 µM)	0.78 (≈ 1.04 µM)	> 50	≤ 0.05	≤ 0.05	≤ 0.05	≤ 0.05	> 50	6.25 (≈ 8.36 µM)	3.13 (≈ 4.18 µM)	6.25 (≈ 8.36 µM)
C=C[C@]12OC(=O)N(CCCCn3cc(-c4ccc(Cl)nc4)nc3C)[C@@H]1[C@@H](C)C(=O)[C@H](C)C[C@@](C)(OC)[C@H](O[C@@H]1O[C@H](C)C[C@H](N(C)C)[C@H]1O)[C@@H](C)C(=O)[C@@H](C)C(=O)O[C@@H]2CC	1.56 (≈ 1.79 µM)	0.2 (≈ 0.229 µM)	> 50	0.1 (≈ 0.115 µM)	0.2 (≈ 0.229 µM)	0.1 (≈ 0.115 µM)	3.13 (≈ 3.59 µM)	≤ 0.05	≤ 0.05	≤ 0.05	≤ 0.05	0.4 (≈ 0.458 µM)	0.78 (≈ 0.894 µM)	≤ 0.05	6.25 (≈ 7.16 µM)
C=C[C@]12OC(=O)N(CCN(C)Cc3cnc(-c4cccnc4)s3)[C@@H]1[C@@H](C)C(=O)[C@H](C)C[C@@](C)(OC)[C@H](O[C@@H]1O[C@H](C)C[C@H](N(C)C)[C@H]1O)[C@@H](C)C(=O)[C@@H](C)C(=O)O[C@@H]2CC	3.13 (≈ 3.66 µM)	0.1 (≈ 0.117 µM)	> 50	0.1 (≈ 0.117 µM)	0.1 (≈ 0.117 µM)	0.1 (≈ 0.117 µM)	0.4 (≈ 0.467 µM)	≤ 0.05	≤ 0.05	≤ 0.05	≤ 0.05	0.78 (≈ 0.911 µM)	0.4 (≈ 0.467 µM)	0.1 (≈ 0.117 µM)	12.5 (≈ 14.6 µM)
C=C[C@]12OC(=O)N(CCCCn3ccc4nc(C(C)=O)ccc43)[C@@H]1[C@@H](C)C(=O)[C@H](C)C[C@@](C)(OC)[C@H](O[C@@H]1O[C@H](C)C[C@H](N(C)C)[C@H]1O)[C@@H](C)C(=O)[C@@H](C)C(=O)O[C@@H]2CC	0.2 (≈ 0.238 µM)	0.1 (≈ 0.119 µM)	> 50	0.1 (≈ 0.119 µM)	0.1 (≈ 0.119 µM)	0.2 (≈ 0.238 µM)	6.25 (≈ 7.45 µM)	≤ 0.05	≤ 0.05	≤ 0.05	≤ 0.05	3.13 (≈ 3.73 µM)	0.78 (≈ 0.93 µM)	0.2 (≈ 0.238 µM)	3.13 (≈ 3.73 µM)
C=C[C@]12OC(=O)N(CCCCn3cnc4ncccc43)[C@@H]1[C@@H](C)C(=O)[C@H](C)C[C@@](C)(OC)[C@H](O[C@@H]1O[C@H](C)C[C@H](N(C)C)[C@H]1O)[C@@H](C)C(=O)[C@@H](C)C(=O)O[C@@H]2CC	0.78 (≈ 0.977 µM)	0.2 (≈ 0.251 µM)	> 50	0.1 (≈ 0.125 µM)	0.4 (≈ 0.501 µM)	0.1 (≈ 0.125 µM)	0.78 (≈ 0.977 µM)	≤ 0.05	≤ 0.05	≤ 0.05	≤ 0.05	3.13 (≈ 3.92 µM)	1.56 (≈ 1.95 µM)	0.2 (≈ 0.251 µM)	1.56 (≈ 1.95 µM)
